This passage reports IC50 results from patent publication US8916565B2, “Pyrrolopyrazine-spirocyclic piperidine amides as modulators of ion channels” (priority 2011, dated 2014).

The assay has as its target human NaV subtype, like NaV 1.7 (Homo sapiens, UniProt Q15858). Description: E-VIPR optical membrane potential assay with electrical stimulation. It counts as cell-based. The settings on record: active against one or more sodium channels; Table 3 does not name the assay or NaV subtype; read-out: Binned Activity Data (IC50).

Sequence of human NaV subtype, like NaV 1.7 (Q15858 whole entry): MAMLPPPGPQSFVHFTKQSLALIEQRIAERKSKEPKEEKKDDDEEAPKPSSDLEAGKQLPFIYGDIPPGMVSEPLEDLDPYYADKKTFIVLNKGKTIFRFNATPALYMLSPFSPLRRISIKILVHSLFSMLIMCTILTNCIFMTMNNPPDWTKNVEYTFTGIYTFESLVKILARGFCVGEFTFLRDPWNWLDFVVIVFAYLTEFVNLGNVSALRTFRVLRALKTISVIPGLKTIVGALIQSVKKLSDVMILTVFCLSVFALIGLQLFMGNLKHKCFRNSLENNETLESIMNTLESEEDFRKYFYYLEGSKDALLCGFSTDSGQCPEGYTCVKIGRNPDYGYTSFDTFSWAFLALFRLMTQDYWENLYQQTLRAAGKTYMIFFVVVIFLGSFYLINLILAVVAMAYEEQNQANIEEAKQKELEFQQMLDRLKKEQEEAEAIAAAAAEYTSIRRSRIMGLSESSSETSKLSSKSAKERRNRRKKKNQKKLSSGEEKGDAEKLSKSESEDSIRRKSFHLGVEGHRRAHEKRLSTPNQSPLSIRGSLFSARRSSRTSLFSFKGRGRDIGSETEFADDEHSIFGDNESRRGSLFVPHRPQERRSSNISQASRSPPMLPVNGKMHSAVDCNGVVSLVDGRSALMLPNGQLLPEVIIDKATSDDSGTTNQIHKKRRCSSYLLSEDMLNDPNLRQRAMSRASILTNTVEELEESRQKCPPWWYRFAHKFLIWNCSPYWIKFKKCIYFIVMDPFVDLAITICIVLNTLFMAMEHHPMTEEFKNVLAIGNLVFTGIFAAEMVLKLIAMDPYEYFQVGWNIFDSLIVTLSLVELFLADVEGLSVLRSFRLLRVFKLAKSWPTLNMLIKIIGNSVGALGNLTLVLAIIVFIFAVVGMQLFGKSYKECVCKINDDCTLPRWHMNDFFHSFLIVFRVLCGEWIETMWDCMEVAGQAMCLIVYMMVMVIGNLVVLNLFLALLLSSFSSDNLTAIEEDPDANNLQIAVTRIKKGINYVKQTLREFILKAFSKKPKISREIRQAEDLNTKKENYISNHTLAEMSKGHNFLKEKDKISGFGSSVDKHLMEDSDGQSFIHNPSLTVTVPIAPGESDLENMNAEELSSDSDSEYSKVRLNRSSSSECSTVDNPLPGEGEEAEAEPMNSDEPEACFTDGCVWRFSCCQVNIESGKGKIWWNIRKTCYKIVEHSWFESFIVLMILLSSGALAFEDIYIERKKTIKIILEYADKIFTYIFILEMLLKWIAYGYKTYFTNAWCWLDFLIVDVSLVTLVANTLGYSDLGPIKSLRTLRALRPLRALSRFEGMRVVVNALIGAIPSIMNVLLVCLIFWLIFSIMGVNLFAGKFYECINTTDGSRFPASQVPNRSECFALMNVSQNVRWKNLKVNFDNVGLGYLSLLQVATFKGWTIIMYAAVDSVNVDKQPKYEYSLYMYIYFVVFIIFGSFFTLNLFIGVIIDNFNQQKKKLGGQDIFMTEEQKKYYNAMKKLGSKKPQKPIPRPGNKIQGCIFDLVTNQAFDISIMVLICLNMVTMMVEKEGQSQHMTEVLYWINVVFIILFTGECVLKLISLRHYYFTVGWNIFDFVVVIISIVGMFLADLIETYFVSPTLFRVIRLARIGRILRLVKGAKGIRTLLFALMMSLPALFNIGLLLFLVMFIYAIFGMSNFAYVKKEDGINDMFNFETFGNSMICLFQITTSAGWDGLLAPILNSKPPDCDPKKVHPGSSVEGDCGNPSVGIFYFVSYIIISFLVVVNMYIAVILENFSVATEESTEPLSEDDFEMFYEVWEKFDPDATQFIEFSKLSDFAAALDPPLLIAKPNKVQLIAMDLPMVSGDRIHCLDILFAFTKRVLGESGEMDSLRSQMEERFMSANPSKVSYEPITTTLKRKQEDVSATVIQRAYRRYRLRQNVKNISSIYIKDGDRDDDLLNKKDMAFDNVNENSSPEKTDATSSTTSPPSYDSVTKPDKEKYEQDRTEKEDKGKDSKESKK

For `CN1CCn2c(C(=O)C3CC3)ccc2C12CCN(C(=O)c1ccc(COCCC(F)(F)F)cc1)CC2` [Compound 627], the IC50 is ≤ 2000 nM.

Regarding `CCN(C)c1ccnc2c(C(=O)N3CCC4(CC3)c3ccc(C(F)(F)F)n3CCN4C)cnn12` [Compound 628], the concentration for half-maximal inhibition (IC50) is ≤ 2000 nM.

As to `CCc1ccc(C(=O)N2CCC3(CC2)c2ccc(C(F)(F)F)n2CCN3C)cc1OC` [Compound 629], the IC50 is ≤ 2000 nM.

On to `Cc1cc(C(=O)N2CC[C@@]3(c4ccc(C(F)(F)F)n4CCN3C)[C@H](F)C2)ccc1C(C)(C)O` [Compound 630], for which the half-inhibitory concentration (IC50) was ≤ 2000 nM.

`CN1CCn2c(C(O)C(F)(F)F)ccc2C12CCN(C(=O)c1ccc(C3CCCCC3)cc1)CC2` (stereo not drawn) [Compound 631]: the IC50 is > 5000 nM.

Turning to `Cc1cc(C(=O)N2CCC3(CC2)c2ccc(C(=O)c4ccccc4)n2CCN3C)ccc1O` [Compound 632], the IC50 was ≤ 2000 nM.

Turning to `COc1ccc(C(=O)N2CCC3(CC2)NC(C)(C)Cn2c(C(C)=O)ccc23)cc1C(F)(F)F` [Compound 633], the half-maximal inhibitory concentration (IC50) is > 5000 nM.

As to `Cc1cc(C(=O)N2CCC3(CC2)c2ccc(C(F)(F)F)n2CCN3C(=O)N(C)C)ccc1C(C)(C)O` [Compound 634], the IC50 is > 5000 nM.

In the case of `CN1CCn2c(C(=O)C(F)(F)F)ccc2C12CCN(C(=O)c1ccc(O)c(Cl)c1)CC2` [Compound 635], the IC50 was 2000 to 5000 nM.

As to `CCOc1ccc(C(=O)N2CCC3(CC2)NC(C)(C)Cn2c(C(=O)C(F)(F)F)ccc23)cc1Cl` [Compound 636], the half-inhibitory concentration (IC50) was ≤ 2000 nM.

Turning to `CN1CCn2c(C(F)(F)F)ccc2C12CCN(C(=O)c1ccc(OCC(C)(C)O)cc1)CC2` [Compound 637], the IC50 is 2000 to 5000 nM.

For `CN1CCn2c(C(=O)C(F)(F)F)ccc2C12CCN(C(=O)c1ccc(C3CCCCC3)cn1)CC2` [Compound 638], the concentration for half-maximal inhibition (IC50) is ≤ 2000 nM.

Turning to `CC(C)Oc1ccc(C(=O)N2CCC3(CC2)c2ccc(C(=O)C4CC4)n2CCN3C)cc1Cl` [Compound 639], the half-maximal inhibitory concentration (IC50) was ≤ 2000 nM.

With `COCCOc1ccc(C(=O)N2CCC3(CC2)c2ccc(C(=O)C(F)(F)F)n2CCN3C)cc1OC` [Compound 640], the IC50 is 2000 to 5000 nM.

On to `CN1CCn2c(C(=O)C(C)(C)C)ccc2C12CCN(C(=O)c1ccc(O)c(Cl)c1)CC2` [Compound 641], for which the IC50 was ≤ 2000 nM.

Consider `Cc1cc(C(=O)N2CC[C@@]3(c4ccc(C(F)(F)F)n4CCN3C)[C@H](F)C2)ccc1OC(C)C` [Compound 642], for which the IC50 is ≤ 2000 nM.

`CC(=O)c1ccc2n1CC(C)(C)NC21CCN(C(=O)c2ccc(C3CCCCC3)cc2)CC1` [Compound 643]: the IC50 was ≤ 2000 nM.

For `CN1CCn2c(C(=O)C3(C)CC3)ccc2C12CCN(C(=O)c1ccc(S(=O)(=O)C(F)(F)F)cc1)CC2` [Compound 644], the concentration for half-maximal inhibition (IC50) is ≤ 2000 nM.

As for `CN1CCn2c(C(=O)C(F)(F)F)ccc2C12CCN(C(=O)c1ccc(OC3CCOCC3)cc1)CC2` [Compound 645], the IC50 was ≤ 2000 nM.

In the case of `CC(C)CCOc1ccc(C(=O)N2CCC3(CC2)c2ccc(C(=O)C(F)(F)F)n2C(C)CN3C)cc1` (stereo not drawn) [Compound 646], the IC50 was ≤ 2000 nM.

For the compound `Cc1cc(C(=O)N2CCC3(CC2)c2ccc(C(F)(F)C(F)(F)F)n2CCN3C)ccc1C(C)(C)O` [Compound 647], the IC50 is ≤ 2000 nM.

For the compound `Cc1nc(C(=O)N2CCC3(CC2)c2ccc(Cl)n2CCN3C)ccc1OC(C)C` [Compound 648], the IC50 was ≤ 2000 nM.

Turning to `C[C@H]1Cn2c(C(=O)C(F)(F)F)ccc2C2(CCN(C(=O)c3ccc(S(=O)(=O)C(F)(F)F)cc3)CC2)N1C` [Compound 649], the IC50 was ≤ 2000 nM.

As for `COc1cc(C(=O)N2CCC3(CC2)c2ccc(Cl)n2CCN3C)ccc1OCCOC(F)(F)F` [Compound 650], the IC50 is ≤ 2000 nM.

`CN(C)c1ncccc1C(=O)N1CCC2(CC1)c1ccc(C(F)(F)F)n1CCN2C` [Compound 652]: the IC50 is > 5000 nM.

Consider `CC(=O)Nc1ccc(-c2ccc(C(=O)N3CCC4(CC3)c3ccc(C(=O)C(F)(F)F)n3CCN4C)cc2C)cn1` [Compound 653], for which the IC50 lay within 2000 to 5000 nM.

Regarding `Cc1cc(C(=O)N2CCC3(CC2)c2ccc(C(=O)C(C)(C)C)n2CCN3C)ccc1S(=O)(=O)C(C)C` [Compound 654], the half-inhibitory concentration (IC50) is ≤ 2000 nM.

Regarding `CC(C)Oc1ccc(C(=O)N2CCC3(CC2)NC(C)(C)Cn2c(C(F)(F)F)ccc23)cc1F` [Compound 655], the IC50 is ≤ 2000 nM.

As for `CC(C)Oc1ccc(C(=O)N2CCC3(CC2)c2ccc(C(=O)C4(C)CC4)n2CCN3C)cc1CO` [Compound 656], the IC50 was ≤ 2000 nM.

As for `Cc1cc(C(=O)N2CCC3(CC2)c2c(Cl)cc(C(F)(F)F)n2CCN3C)ncc1OC(C)C` [Compound 657], the IC50 was ≤ 2000 nM.

As for `Cc1cc(C(=O)N2CCC3(CC2)c2ccc(C(F)(F)F)n2CCN3C)ccc1C1COC1` [Compound 658], the IC50 is ≤ 2000 nM.

Consider `CN1CCn2c(C(F)(F)F)ccc2C12CCN(C(=O)c1ccc(-c3ccccc3)cc1)CC2` [Compound 659], for which the IC50 was > 5000 nM.

Turning to `CCN(C)c1cc(C)nc2c(C(=O)N3CCC4(CC3)c3ccc(C(F)(F)F)n3CCN4C)cnn12` [Compound 660], the IC50 was ≤ 2000 nM.

As for `CC(C)CCOc1ccc(C(=O)N2CCC3(CC2)c2ccc(C(=O)C(C)(C)C)n2CCN3C)cc1` [Compound 661], the half-maximal inhibitory concentration (IC50) was ≤ 2000 nM.

Regarding `COCCN1CCn2c(C(F)(F)F)ccc2C12CCN(C(=O)c1ccccc1OC(F)(F)F)CC2` [Compound 662], the concentration for half-maximal inhibition (IC50) is ≤ 2000 nM.

Regarding `COc1ccc(C(=O)N2CCC3(CC2)c2ccc(C(=O)C(F)(F)F)n2CCN3C)cc1C` [Compound 663], the IC50 was ≤ 2000 nM.

In the case of `CC(C)Oc1ccc(C(=O)N2CCC3(CC2)c2ccc(C(F)(F)C(F)(F)F)n2CCN3C)cc1Cl` [Compound 664], the half-maximal inhibitory concentration (IC50) is ≤ 2000 nM.

`CC(=O)c1ccc2n1CCN(C)C21CCN(C(=O)c2ccc(COc3ccccc3)cc2)CC1` [Compound 665]: the half-maximal inhibitory concentration (IC50) was ≤ 2000 nM.

Turning to `CN1CCn2c(C(F)(F)F)cc(F)c2C12CCN(C(=O)c1ccc(S(=O)(=O)NC3CC3)cc1)CC2` [Compound 666], the IC50 was ≤ 2000 nM.

Consider `COc1cc(C(=O)N2CCC3(CC2)NC(C)(C)Cn2c(C(F)(F)F)ccc23)ccc1OC(C)(C)C` [Compound 667], for which the half-inhibitory concentration (IC50) was ≤ 2000 nM.

`CCc1ccc(C(=O)N2CCC3(CC2)c2c(F)cc(C(F)(F)F)n2CCN3C)cc1OC` [Compound 668]: the IC50 is ≤ 2000 nM.

Regarding `C[C@H]1Cn2c(C(=O)C(F)(F)F)ccc2C2(CCN(C(=O)c3ccc(S(=O)(=O)NC4CC4)cc3)CC2)N1C` [Compound 669], the concentration for half-maximal inhibition (IC50) was ≤ 2000 nM.

On to `CN1CCn2c(Cl)ccc2C12CCN(C(=O)c1ccc(S(=O)(=O)C(F)F)cc1)CC2` [Compound 670], for which the half-maximal inhibitory concentration (IC50) was > 5000 nM.

For `CCCN(CCC)S(=O)(=O)c1ccc(C(=O)N2CCC3(CC2)c2ccc(C(=O)C(F)(F)F)n2CCN3C)cc1` [Compound 671], the IC50 is ≤ 2000 nM.

`Cc1cc(C(=O)N2CCC3(CC2)c2c(F)cc(C(F)(F)F)n2CCN3C)ccc1OC(C)C` [Compound 672]: the 50% inhibitory concentration (IC50) was ≤ 2000 nM.

On to `Cc1cc(C)n2ncc(C(=O)N3CCC4(CC3)c3ccc(C(F)(F)F)n3CCN4C)c2n1` [Compound 673], for which the IC50 is ≤ 2000 nM.

Take `CC(C)Oc1ccc(C(=O)N2CCC3(CC2)c2ccc(C(=O)C(C)C)n2CCN3C)cc1Cl` [Compound 674]: the IC50 is ≤ 2000 nM.

For the compound `COc1c(C)cccc1C(=O)N1CCC2(CC1)c1ccc(C(=O)C(F)(F)F)n1C[C@H](C)N2C` [Compound 675], the 50% inhibitory concentration (IC50) is ≤ 2000 nM.

For the compound `CC(C)Oc1ccc(C(=O)N2CCC3(CC2)c2ccc(C(=O)C(F)(F)F)n2CCN3C)cc1C(F)(F)F` [Compound 676], the IC50 is ≤ 2000 nM.

In the case of `COc1cc(C(=O)N2CCC3(CC2)c2ccc(C(F)(F)F)n2C[C@@H](C)N3C)ccc1OC(C)C` [Compound 677], the IC50 is > 5000 nM.

On to `CC(C)Oc1ccc(C(=O)N2CCC3(CC2)c2ccc(Cl)n2CCN3C)cc1CO` [Compound 678], for which the 50% inhibitory concentration (IC50) was in the range of 2000 to 5000 nM.

For `CN1CCn2c(Cl)ccc2C12CCN(C(=O)c1cccc3cccnc13)CC2` [Compound 679], the concentration for half-maximal inhibition (IC50) lay within 2000 to 5000 nM.

With `CN1CCn2c(C(=O)C(C)(C)C)ccc2C12CCN(C(=O)c1ccc(S(=O)(=O)C(C)(C)C)cc1)CC2` [Compound 680], the half-maximal inhibitory concentration (IC50) is ≤ 2000 nM.

Turning to `CC(=O)c1ccc2n1CCN(C)C21CCN(C(=O)c2ccc(OCC(C)(C)O)c(C)c2)CC1` [Compound 681], the IC50 is 2000 to 5000 nM.

Take `Cc1cc(C(=O)N2CCC3(CC2)c2ccc(C(=O)C(C)(C)C)n2CCN3C)ccc1S(C)(=O)=O` [Compound 682]: the IC50 is > 5000 nM.

For `COC(=O)N1CCn2c(C(F)(F)F)ccc2C12CCN(C(=O)c1ccc(C(C)(C)O)c(C)c1)CC2` [Compound 683], the 50% inhibitory concentration (IC50) was ≤ 2000 nM.

As to `CCN(CC)c1ncccc1C(=O)N1CCC2(CC1)c1ccc(C(F)(F)F)n1CCN2C` [Compound 684], the half-maximal inhibitory concentration (IC50) was > 5000 nM.

Consider `CN1CCn2c(C(=O)C3(C)CC3)ccc2C12CCN(C(=O)c1ccc(O)c(C(F)(F)F)c1)CC2` [Compound 685], for which the half-maximal inhibitory concentration (IC50) is ≤ 2000 nM.

Consider `COc1cc(C(=O)N2CCC3(CC2)NC(C)(C)Cn2c(C(=O)C(F)(F)F)ccc23)ccc1OCCC(C)C` [Compound 686], for which the IC50 is ≤ 2000 nM.

Regarding `COc1cc(C(=O)N2CCC3(CC2)c2c(Cl)cc(C(F)(F)F)n2CCN3C)ccc1COCC(F)(F)F` [Compound 687], the IC50 is ≤ 2000 nM.

On to `CN1CCn2c(C(=O)C(F)(F)F)ccc2C12CCN(C(=O)c1ccc(CC(C)(C)O)cc1)CC2` [Compound 688], for which the half-inhibitory concentration (IC50) was ≤ 2000 nM.

Consider `CN1CCn2c(C(=O)C3(C)CC3)ccc2C12CCN(C(=O)c1ccc(S(=O)(=O)C(C)(C)C)cc1)CC2` [Compound 689], for which the 50% inhibitory concentration (IC50) was > 5000 nM.

Consider `COc1cc(C(=O)N2CCC3(CC2)c2ccc(C(F)(F)F)n2CCN3C2CC2)ccc1OC(C)C` [Compound 690], for which the half-maximal inhibitory concentration (IC50) is ≤ 2000 nM.

`CC(=O)c1ccc2n1CCN(C)C21CCN(C(=O)c2ccc(OC(C)C)c(C)n2)CC1` [Compound 691]: the IC50 was ≤ 2000 nM.

As for `CC1Cn2c(C(F)(F)F)ccc2C2(CCN(C(=O)c3ccc(OC(C)C)c(F)c3)CC2)N1` (stereo not drawn) [Compound 692], the half-inhibitory concentration (IC50) was ≤ 2000 nM.

For `COc1ccc(C(=O)N2CCC3(CC2)c2ccc(C(=O)c4ccccc4)n2CCN3C)cc1C` [Compound 694], the IC50 lay in the range of 2000 to 5000 nM.

A word on the IC50: it is the concentration that inhibits the measured activity by half.
